Type in all cases: physicochemical
Data set [1] can be described thus: pKa in the dark and under light irradiation. The conditions noted are these: for pKa: water:DMSO 99:1, dark, read-out: pKa dark (open form). An excerpt:
Since light‐induced cyclization is also associated with a change in the nature of the amino group of 1a–e, we investigated the change in their pK a upon light irradiation. This phenomenon has been already reported in the literature for other photoresponsive molecules,^[ [41], [42] ^] and it is recognized that, apart from being key in many biological processes, is a powerful tool for potential applications in catalysis^[ [43] ^] or self‐assembly.^[ [44] ^] […] Moreover, for compounds 1b and 1c, bearing methoxy groups, the change in pK a generated upon light irradiation is considerably smaller than for compounds 1d and 1e, bearing fluorine groups. This difference can be easily associated with the nature of the substituents, where for 1d–e the electron‐withdrawing effect of the fluorine favors a higher acidity of the closed isomers, contrarily to the effect of the electron‐donating groups for 1b–c.

A further data set in a line: Solubility in solvents. The conditions noted are these: solvent. An excerpt: Having explored the effect of substituents, we next focused on the impact of the medium. […] These findings can be explained using the reported hydrogen‐bond donor (HBD) acidity (Taft–Kamlet α‐scale) of the utilized solvents.^[ [39] ^] Such a big difference in thermal half‐life has to be associated with the proton transfer from the secondary amine (in the closed form) to the phenol group since the back relaxation from the closed form to the open conjugated form is a […] process. We hypothesize that solvents like water and methanol trigger a Grotthus‐like proton transfer mechanism which speeds up the back‐relaxation process, similar to what was previously reported for other phenol‐bearing photoswitches.^[ [40] ^]
Similar to what is observed for the other compounds, the half‐life of closed 1f in water is extremely small (Table 1). This opens the opportunity of using 1f in out‐of‐equilibrium^[ [45] ^] and dissipative water‐based systems. Moreover, irradiation of 1f triggers the photo reactions that generate its respective closed indole‐like form, which compared to the closed forms of 1a–e also has a lower value of pK^hν (Table 1) and generates a higher ΔpK a value between the open and closed forms, being 1.7 pK a units, thanks to the electron‐withdrawing effect coming from the presence of a sulfonate group.

The nature of data set [2]: Fatigue resistance / photostability under 365 nm irradiation. The conditions noted are these: UV–vis absorbance kinetic experiments.

Seven molecules from PMC12232897, “Harnessing Negative Photochromism in Styryl Cyanines for Light‐Modulated Proton Transport” (Angewandte Chemie (International Ed. in English), 2025) can be followed below.

Turning to `CC1(C)C(/C=C/c2ccccc2O)=Nc2ccccc21` [1a], in data set [1], the pKa came to 4.3. For the same molecule, the Solubility entry in “Solubility in solvents” is “soluble in both polar and apolar solvents”.
For the molecule `COc1ccc2c(c1)C(C)(C)C(/C=C/c1ccccc1O)=N2` [1b], in data set [1], the pKa was determined as 4.6.
Same read-out and setting: the result for `COc1ccc(O)c(/C=C/C2=Nc3ccccc3C2(C)C)c1` [1c] reads 4.3; that for `CC1(C)C(/C=C/c2ccccc2O)=Nc2ccc(F)cc21` [1d], 4.3; that for `CC1(C)C(/C=C/c2cc(F)ccc2O)=Nc2ccccc21` [1e], 4.3.
Take `CC1(C)C(/C=C/c2ccccc2O)=Nc2ccc(S(=O)(=O)[O-])cc21.[K+]` [1f]: the “ΔpKa between the open and closed forms” value in data set [1] (water:DMSO 99:1) is reported as 1.7 pK a units. Besides, the pKa in data set [1] was 3.9. Besides, in “Solubility in solvents”, the Solubility result was “fully soluble and fully switchable in water”.
Consider `COc1ccccc1/C=C/C1=Nc2ccccc2C1(C)C` [1g], for which, in data set [2], the “Photostability on prolonged irradiation at 365 nm” value is “photodegradation of the sample”.
